Data as given in patent US4526889A, “Epimeric azahomoerythromycin A derivative, intermediates and method of use” (Pfizer Inc., priority 1984, dated 1985).
Converted amounts (≈) assume the structure as drawn. Where two headings read alike, the source gives them in different places.

Legend:
E. Coli 125 = assay: MIC in brain heart infusion (BHI) broth; type: cell-based; details: Escherichia coli
From the text: (§1) Generally twelve 2 fold dilutions of the test compound are employed, with initial concentration of the test drug being in the range of 50 to 200 mcg./ml. The susceptibility (MIC) of the test organism is accepted as the lowest concentration of compound capable of producing complete inhibition of growth as judged by the naked eye. A comparison of the activity of 4"-epi-9-deoxo-9a-methyl-9a-aza-9a-homoerythromycin A (IV) with that of an erythromycin A control is shown in replicate in the Table I.

E. Coli 129 = assay: MIC in brain heart infusion (BHI) broth; type: cell-based; details: Escherichia coli
From the text: as §1

E. Coli 266 = assay: MIC in brain heart infusion (BHI) broth; type: cell-based; details: Escherichia coli
From the text: as §1

E. Coli 470 = assay: MIC in brain heart infusion (BHI) broth; type: cell-based; details: Escherichia coli, BHI broth, read-out: MIC
From the text: as §1

Ent. aerog. 040 = assay: MIC in brain heart infusion (BHI) broth; type: cell-based
From the text: as §1

Ent. cloac. 009 = assay: MIC in brain heart infusion (BHI) broth; type: cell-based
From the text: as §1

Kleb. oxy. 024 = assay: MIC in brain heart infusion (BHI) broth; type: cell-based
From the text: as §1

Kleb. pn. 009 = assay: MIC in brain heart infusion (BHI) broth; type: cell-based
From the text: as §1

Kleb. pn. 031 = assay: MIC in brain heart infusion (BHI) broth; type: cell-based
From the text: as §1

Neiss. sic. 000 = assay: MIC in brain heart infusion (BHI) broth; type: cell-based
From the text: as §1

Past. mult. 001 = assay: MIC in brain heart infusion (BHI) broth; type: cell-based; details: BHI broth, read-out: MIC
From the text: as §1

Prov. strua. 013 = assay: MIC in brain heart infusion (BHI) broth; type: cell-based
From the text: as §1

Serr. mar. 017 = assay: MIC in brain heart infusion (BHI) broth; type: cell-based
From the text: as §1

Staph. aur. 005 = assay: MIC in brain heart infusion (BHI) broth; type: cell-based
From the text: as §1

Staph. aur. 052 = assay: MIC in brain heart infusion (BHI) broth; type: cell-based
From the text: as §1

Staph. aur. 400 = assay: MIC in brain heart infusion (BHI) broth; type: cell-based
From the text: as §1

Staph. epi 111 = assay: MIC in brain heart infusion (BHI) broth; type: cell-based
From the text: as §1

Strep. faec. 006 = assay: MIC in brain heart infusion (BHI) broth; type: cell-based
From the text: as §1

Strep. pneumo. 012 = assay: MIC in brain heart infusion (BHI) broth; type: cell-based
From the text: as §1

Strep. pyog. 203 = assay: MIC in brain heart infusion (BHI) broth; type: cell-based
From the text: as §1

H. influ. 012 = assay: MIC in brain heart infusion (BHI) broth; type: cell-based, Hemophilus influenzae; details: Haemophilus influenzae
From the text: as §1

H. influ. 036 = assay: MIC in brain heart infusion (BHI) broth; type: cell-based, Hemophilus influenzae; details: Haemophilus influenzae
From the text: as §1

H. influ. 038 = assay: MIC in brain heart infusion (BHI) broth; type: cell-based, Hemophilus influenzae; details: Haemophilus influenzae
From the text: as §1

H. influ. 042 = assay: MIC in brain heart infusion (BHI) broth; type: cell-based, Hemophilus influenzae; details: Haemophilus influenzae
From the text: as §1

H. influ. 051 = assay: MIC in brain heart infusion (BHI) broth; type: cell-based, Hemophilus influenzae; details: Haemophilus influenzae
From the text: as §1

H. influ. 073 = assay: MIC in brain heart infusion (BHI) broth; type: cell-based, Hemophilus influenzae; details: Haemophilus influenzae
From the text: as §1

H. influ. 078 = assay: MIC in brain heart infusion (BHI) broth; type: cell-based, Hemophilus influenzae; details: Haemophilus influenzae
From the text: as §1

H. influ. 081 = assay: MIC in brain heart infusion (BHI) broth; type: cell-based, Hemophilus influenzae; details: Haemophilus influenzae
From the text: as §1

[1] = tested on: erythromycin A susceptible organisms and Hemophilus influenzae; assay: spectrum of antibacterial activity; type: cell-based
From the text: as §1

[2] = oral absorption and half-life in vivo
[3] = microbiological (bioassay) determination of serum levels in rats
Description: Additionally, compound (IV) is tested in vivo by the well-known mouse protection test, or by a microbiological (bioassay) determination of serum levels in a variety of mammals (e.g., mouse, rat, dog).

[4] = 24 h, Day 1, BHI broth, read-out: MIC
[5] = 48 h, Day 2, BHI broth, read-out: MIC

CC[C@H]1OC(=O)[C@H](C)[C@@H](O[C@H]2C[C@@](C)(OC)[C@H](O)[C@H](C)O2)[C@H](C)[C@@H](O[C@@H]2O[C@H](C)C[C@H](N(C)C)[C@H]2O)[C@](C)(O)C[C@@H](C)CN(C)[C@H](C)[C@@H](O)[C@]1(C)O [Compound (IV), 4"-epi-9-deoxo-9a-methyl-9a-aza-9a-homoerythromycin A]
MIC (E. Coli 125; 24 h): 6.25 µg/mL (≈ 8.34 µM)
MIC (E. Coli 125; 48 h): 6.25 µg/mL (≈ 8.34 µM)
MIC (E. Coli 129; 24 h): 1.56 µg/mL (≈ 2.08 µM)
MIC (E. Coli 129; 48 h): 6.25 µg/mL (≈ 8.34 µM)
MIC (E. Coli 266; 24 h): 3.12 µg/mL (≈ 4.17 µM)
MIC (E. Coli 266; 48 h): 6.25 µg/mL (≈ 8.34 µM)
MIC (E. Coli 470; 24 h, Day 1): 0.78 µg/mL (≈ 1.04 µM)
MIC (E. Coli 470; 48 h, Day 2): 0.78 µg/mL (≈ 1.04 µM)
MIC (Ent. aerog. 040; 24 h, Day 1): 12.5 µg/mL (≈ 16.7 µM)
MIC (Ent. aerog. 040; 48 h, Day 2): 12.5 µg/mL (≈ 16.7 µM)
MIC (Ent. cloac. 009; 24 h, Day 1): 25 µg/mL (≈ 33.4 µM)
MIC (Ent. cloac. 009; 48 h, Day 2): 25 µg/mL (≈ 33.4 µM)
MIC (Kleb. oxy. 024; 24 h, Day 1): 12.5 µg/mL (≈ 16.7 µM)
MIC (Kleb. oxy. 024; 48 h, Day 2): 12.5 µg/mL (≈ 16.7 µM)
MIC (Kleb. pn. 009; 24 h, Day 1): 12.5 µg/mL (≈ 16.7 µM)
MIC (Kleb. pn. 009; 48 h, Day 2): 12.5 µg/mL (≈ 16.7 µM)
MIC (Kleb. pn. 031; 24 h, Day 1): 12.5 µg/mL (≈ 16.7 µM)
MIC (Kleb. pn. 031; 48 h, Day 2): 12.5 µg/mL (≈ 16.7 µM)
MIC (Neiss. sic. 000; [4]): 0.2 µg/mL (≈ 0.267 µM)
MIC (Neiss. sic. 000; 48 h): 0.39 µg/mL (≈ 0.521 µM)
MIC (Past. mult. 001; 24 h, Day 1): 0.1 µg/mL (≈ 0.134 µM)
MIC (Past. mult. 001; 48 h, Day 2): 0.1 µg/mL (≈ 0.134 µM)
MIC (Prov. strua. 013; 24 h, Day 1): 50 µg/mL (≈ 66.8 µM)
MIC (Prov. strua. 013; 48 h, Day 2): 50 µg/mL (≈ 66.8 µM)
MIC (Serr. mar. 017; 24 h, Day 1): 50 µg/mL (≈ 66.8 µM)
MIC (Serr. mar. 017; 48 h, Day 2): 50 µg/mL (≈ 66.8 µM)
MIC (Staph. aur. 005; [4]): 0.2 µg/mL (≈ 0.267 µM)
MIC (Staph. aur. 005; 48 h): 0.39 µg/mL (≈ 0.521 µM)
MIC (Staph. aur. 052; [4]): 0.2 µg/mL (≈ 0.267 µM)
MIC (Staph. aur. 052; 48 h): 0.39 µg/mL (≈ 0.521 µM)
MIC (Staph. aur. 400; 24 h): 3.12 µg/mL (≈ 4.17 µM)
MIC (Staph. aur. 400; [5]): 12.5 µg/mL (≈ 16.7 µM)
MIC (Staph. epi 111; 24 h, Day 1): 0.1 µg/mL (≈ 0.134 µM)
MIC (Staph. epi 111; 48 h, Day 2): 0.2 µg/mL (≈ 0.267 µM)
MIC (Strep. faec. 006; 24 h): 1.56 µg/mL (≈ 2.08 µM)
MIC (Strep. faec. 006; [5]): 0.78 µg/mL (≈ 1.04 µM)
MIC (Strep. pneumo. 012; 24 h, Day 1): 0.025 µg/mL (≈ 0.0334 µM)
MIC (Strep. pneumo. 012; 48 h, Day 2): 0.025 µg/mL (≈ 0.0334 µM)
MIC (Strep. pyog. 203; 24 h, Day 1): 0.025 µg/mL (≈ 0.0334 µM)
MIC (Strep. pyog. 203; 48 h, Day 2): 0.025 µg/mL (≈ 0.0334 µM)
MIC (H. influ. 012; 24 h, Day 1): 0.39 µg/mL (≈ 0.521 µM)
MIC (H. influ. 012; 48 h, Day 2): 0.39 µg/mL (≈ 0.521 µM)
MIC (H. influ. 036; 24 h, Day 1): 0.39 µg/mL (≈ 0.521 µM)
MIC (H. influ. 036; 48 h, Day 2): 0.39 µg/mL (≈ 0.521 µM)
MIC (H. influ. 038; 24 h): 0.39 µg/mL (≈ 0.521 µM)
MIC (H. influ. 038; [5]): 0.78 µg/mL (≈ 1.04 µM)
MIC (H. influ. 042; 24 h, Day 1): 0.39 µg/mL (≈ 0.521 µM)
MIC (H. influ. 042; 48 h, Day 2): 0.39 µg/mL (≈ 0.521 µM)
MIC (H. influ. 051; 24 h): 0.39 µg/mL (≈ 0.521 µM)
MIC (H. influ. 051; [5]): 0.78 µg/mL (≈ 1.04 µM)
MIC (H. influ. 073; 24 h): 0.39 µg/mL (≈ 0.521 µM)
MIC (H. influ. 073; [5]): 0.78 µg/mL (≈ 1.04 µM)
MIC (H. influ. 078; 24 h, Day 1): 0.39 µg/mL (≈ 0.521 µM)
MIC (H. influ. 078; 48 h, Day 2): 0.39 µg/mL (≈ 0.521 µM)
MIC (H. influ. 081; 24 h): 0.39 µg/mL (≈ 0.521 µM)
MIC (H. influ. 081; [5]): 0.78 µg/mL (≈ 1.04 µM)
spectrum of antibacterial activity [1]: relatively broad spectrum of antibacterial activity which includes erythromycin A susceptible organisms and, in addition, fully incorporates the major respiratory pathogen Hemophilus influenzae
half-life in vivo ([2]; in vivo): extraordinarily long half-life in vivo
oral absorption ([2]; oral): high oral absorption
absorption after oral dosage [3]: exceptionally well absorbed
serum levels ([3]; oral): exceptionally high and long lasting serum levels
